{"source": "ChEMBL document CHEMBL1201862", "about": "“PubChem BioAssay data set” (2004)", "key": {"Candida albicans [1]": {"system": "Candida albicans", "assay": "Candida growth inhibition combined with fluconazole – CaCi-2 strain, Alamar Blue, dry powder, set 3, dose response (AID 488907)", "format": "functional, organism-based"}, "Candida albicans [2]": {"system": "Candida albicans", "assay": "resistant Candida growth with fluconazole co-treatment – CaCi-8 strain, Alamar Blue, dry powder, set 2, dose response (AID 488909)", "format": "functional, organism-based"}, "[3]": {"target": "T1, Short transient receptor potential channel 4 (Mus musculus, UniProt Q9QUQ5)", "T1 sequence (Q9QUQ5 whole entry)": "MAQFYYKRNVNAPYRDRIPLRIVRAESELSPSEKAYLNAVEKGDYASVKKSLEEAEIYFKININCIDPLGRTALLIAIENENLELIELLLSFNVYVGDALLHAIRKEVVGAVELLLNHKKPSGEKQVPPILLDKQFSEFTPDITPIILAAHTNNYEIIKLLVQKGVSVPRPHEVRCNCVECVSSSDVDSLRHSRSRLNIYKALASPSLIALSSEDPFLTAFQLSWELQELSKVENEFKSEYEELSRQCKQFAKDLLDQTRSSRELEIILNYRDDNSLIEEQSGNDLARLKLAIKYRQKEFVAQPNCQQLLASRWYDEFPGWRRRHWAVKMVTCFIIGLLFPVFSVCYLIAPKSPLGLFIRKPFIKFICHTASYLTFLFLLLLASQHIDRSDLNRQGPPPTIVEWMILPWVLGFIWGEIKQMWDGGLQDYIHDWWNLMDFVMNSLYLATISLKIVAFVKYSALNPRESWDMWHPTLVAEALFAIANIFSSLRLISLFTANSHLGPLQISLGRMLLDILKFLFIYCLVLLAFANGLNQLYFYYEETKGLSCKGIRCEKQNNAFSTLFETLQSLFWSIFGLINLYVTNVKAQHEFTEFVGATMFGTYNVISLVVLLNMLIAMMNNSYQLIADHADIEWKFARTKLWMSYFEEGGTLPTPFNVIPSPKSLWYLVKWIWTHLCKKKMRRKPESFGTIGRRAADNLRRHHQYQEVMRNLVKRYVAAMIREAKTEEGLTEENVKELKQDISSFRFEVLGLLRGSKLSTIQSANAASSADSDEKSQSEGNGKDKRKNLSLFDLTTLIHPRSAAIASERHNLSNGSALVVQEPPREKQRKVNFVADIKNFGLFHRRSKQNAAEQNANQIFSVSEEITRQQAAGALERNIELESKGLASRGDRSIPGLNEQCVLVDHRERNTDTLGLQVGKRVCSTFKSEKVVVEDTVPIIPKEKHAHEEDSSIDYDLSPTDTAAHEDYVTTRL", "assay": "potency of mouse TRPC4 calcium flux blockers – cell-based, HEK293 TRPC4/mu-opioid, DAMGO stimulus, Fluo-4, dose response (AID 492994)", "format": "functional"}, "[4]": {"target": "T1, Short transient receptor potential channel 4", "assay": "SAR Analysis for the identification of selective inhibits of the transient receptor potential cation channel C4 (TRPC4): Automated Electrophysiology_2. [Related pubchem assays (depositor defined):AID2256]", "format": "functional"}, "[5]": {"target": "T2, Microphthalmia-associated transcription factor (Homo sapiens, UniProt O75030)", "T2 sequence (O75030 whole entry)": "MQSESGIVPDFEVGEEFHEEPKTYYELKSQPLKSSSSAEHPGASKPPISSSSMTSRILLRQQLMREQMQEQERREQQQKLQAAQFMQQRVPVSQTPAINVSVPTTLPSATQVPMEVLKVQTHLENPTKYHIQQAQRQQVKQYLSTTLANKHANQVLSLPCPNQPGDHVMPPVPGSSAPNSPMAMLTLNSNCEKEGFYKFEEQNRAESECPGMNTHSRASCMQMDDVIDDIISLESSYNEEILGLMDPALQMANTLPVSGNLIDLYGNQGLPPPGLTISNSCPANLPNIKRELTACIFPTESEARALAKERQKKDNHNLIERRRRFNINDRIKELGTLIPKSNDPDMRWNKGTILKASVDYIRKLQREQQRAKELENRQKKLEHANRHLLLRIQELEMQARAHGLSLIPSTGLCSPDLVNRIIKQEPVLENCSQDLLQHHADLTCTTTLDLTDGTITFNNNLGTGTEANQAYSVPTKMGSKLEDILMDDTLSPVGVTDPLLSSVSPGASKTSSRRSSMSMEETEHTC", "assay": "reducers of TRPM1 reporter luminescence, concentration series – cell-based, SK-MEL-5, cherry-picked, set 3, MITF inhibitor project, dose response (AID 493073);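 also: SK-MEL-5 melanoma cells with luciferase driven by the MITF target TRPM1 promoter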", "format": "functional"}, "Jurkat": {"system": "Jurkat", "assay": "blockers of NF-kB activation in T cells – Jurkat, luciferase reporter, luminescence, B- and T-cell, dose response (AID 489004);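 also: NF-kB luciferase reporter Jurkat cells stimulated with PMA plus ionomycin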", "format": "functional, cell-based", "conditions": "Homo sapiens"}, "[6]": {"assay": "HEK-293T viability loss, compound-treated – cell-based, uHTS hits, cytotoxicity control for B/T-cell NF-kB inhibitor project, dose response (AID 489019)", "format": "functional"}, "A-375 [7]": {"system": "A-375", "assay": "MITF: Counter assay: A375 proliferation Measured in Cell-Based System Using Plate Reader - 2084-03_Inhibitor_Dose_DryPowder_Activity. [Related pubchem assays (depositor defined):AID488944]", "format": "functional", "conditions": "Homo sapiens"}, "A-375 [8]": {"system": "A-375", "assay": "proliferation inhibition in MITF-low A375 cells – cell-based, cherry-pick samples, set 2, counter-screen for MITF modulator project, dose response (AID 540335)", "format": "functional", "conditions": "Homo sapiens"}}, "note": "Active and inactive are the calls of the source.", "data": [{"smiles": "CC(C)C(=O)N1CCN(c2ccnc3cc(Cl)ccc23)CC1", "values": [{"measurement": "AC50", "setting": "Candida albicans [1]", "value": "3.03 µM (active)"}, {"measurement": "AC50", "setting": "Candida albicans [2]", "value": "< 0.195 µM (active)"}]}, {"smiles": "Cc1cc(N2CC(C)CC(C)C2)nc2ccccc12", "note": "(centres undefined)", "values": [{"measurement": "IC50", "setting": "[3]", "value": "12.6 µM (active)"}, {"measurement": "IC50", "setting": "[4]", "value": "11.9 µM (active)"}]}, {"smiles": "CCOc1ccc(/C=C2\\SC(=S)N(CCC(=O)O)C2=O)cc1", "values": [{"measurement": "AC50", "setting": "[5]", "value": "0.577 µM (active)"}, {"measurement": "IC50", "setting": "Jurkat", "value": "< 0.16 µM (active)"}, {"measurement": "IC50", "setting": "[6]", "value": "> 80 µM (inactive)"}, {"measurement": "AC50", "setting": "A-375 [7]", "value": "> 35 µM (active)"}, {"measurement": "AC50", "setting": "A-375 [8]", "value": "> 35 µM (active)"}]}]}
